# Measured values: US4536335A, “Carbapenem antibiotics” (Bristol-Myers Company, priority 1983, dated 1985)
# Where two headings read alike, the source gives them in different places.
# Legend:
# S. marcescens A20019 = assay: In vitro MIC, tube dilution; format: cell-based; conditions: Serratia marcescens, A20019, tube dilution, Nutrient Broth, overnight incubation at 37° C.; additional data table
# S. pneumoniae A-9585 = assay: In vitro MIC, tube dilution; format: cell-based; conditions: Streptococcus pneumoniae, A9585, Nutrient Broth, overnight incubation at 37° C., additional data table
# [1] = Urinary recovery after intramuscular administration to mice; format: in vivo; conditions: mouse, urine, im, 20 mg/kg, intramuscular dose of 20 mg/kg, 0-6 hour collection, read-out: Urine Recovery
# Procedure: Compounds were solubilized in 0.1 M phosphate buffer pH 7. Values are from a single test; 4 mice per compound.
# Also shown is the urinary recovery in the mice.
# ***Recovery based on 0-6 hour collection
# E. cloacae A-9659 = assay: In vitro MIC, tube dilution; format: cell-based; conditions: Enterobacter cloacae, A9659, tube dilution, Nutrient Broth, overnight incubation at 37° C.; additional data table
# Excerpt: N-formimidoyl thienamycin was included as a comparison compound.
# S. faecalis A20688 = assay: In vitro MIC, tube dilution; format: cell-based; conditions: Enterococcus faecalis, A20688, tube dilution, Nutrient Broth, overnight incubation at 37° C.; additional data table
# S. aureus A-9537 = assay: In vitro MIC, tube dilution; format: cell-based; conditions: Staphylococcus aureus, overnight incubation at 37° C., additional data table
# P. vulgaris A21559 = assay: In vitro MIC, tube dilution; format: cell-based; conditions: Proteus vulgaris, A21559, tube dilution, Nutrient Broth, overnight incubation at 37° C.; additional data table
# K. pneumoniae A20468 = assay: In vitro MIC, tube dilution; format: cell-based; conditions: Klebsiella pneumoniae, A20468, tube dilution, Nutrient Broth, overnight incubation at 37° C.; additional data table
compound,measurement,setting,value
"C[C@@H](O)[C@H]1C(=O)N2C(C(=O)[O-])=C(SCC[N+]3(C)CCN(C)CC3)C[C@H]12 [Example 4, (5R,6S)3-[2-(1,4-dimethyl-1-piperazinium)-ethylthio]-6-[1-(R)-hydroxyethyl]-7-oxo-1-azabicyclo-[3.2.0]hept-2-ene-2-carboxylate]",MIC,S. marcescens A20019,0.25 µg/mL
same,MIC,S. pneumoniae A-9585,4 ng/mL
same,dose excreted at 6 h,[1],33 ± 11%
same,MIC,E. cloacae A-9659,1 µg/mL
same,MIC,S. faecalis A20688,2 µg/mL
same,MIC,"S. aureus A-9537; A9537, 50% serum, tube dilution, read-out: MIC S. aureus-50% serum A-9537",0.06 µg/mL
same,MIC,"S. aureus A-9537; A9537, tube dilution, Nutrient Broth, read-out: MIC S. aureus A-9537",0.03 µg/mL
same,MIC,P. vulgaris A21559,0.25 µg/mL
same,MIC,K. pneumoniae A20468,0.5 µg/mL
